According to US20240092784A1, “CONDENSED HETEROCYCLIC COMPOUND” (NISSAN CHEMICAL CORPORATION, priority 2020, published 2024):

Legend:
human SPR [1] = molecular target: T1, human SPR (Homo sapiens (Human), UniProt P35270); test: Evaluation Example 1: Measurement of human SPR inhibitory activity (sepiapterin absorbance at 420 nm); assay type: biochemical; details: 240 minutes at room temperature
Experimental: Human SPR was prepared as described below. The full-length human SPR (1-261) cDNA was purchased from Eurofins Genomics as an artificially synthesized plasmid containing a DNA sequence optimized for the E. coli expression system so that the sequence of the expressed protein after transcription and translation matches the sequence described in UniprotKB (P35270).
Linearized insert and vector were prepared by PCR using primers designed for amplification of human SPR cDNA and primers designed to contain the thrombin recognition sequence of pET28a (Novagen) and a polyhistidine tag. Cloning was performed using In-Fusion (registered trademark) HD Cloning Kit (TaKaRa) to thereby construct a human SPR expression plasmid. The resultant human SPR expression plasmid was transformed into BL21 (DE3) competent cells (INVITROGEN).
The cells were inoculated into LB medium (1% triptone, 0.5% yeast extract, 1% sodium chloride) containing […] of kanamycin, and then precultured at 37° C. overnight. The precultured cells were inoculated into TB medium (1.2% triptone, 2.4% yeast extract, 9.4% dipotassium hydrogen phosphate, 2.2% potassium dihydrogen phosphate, 0.8% glycerin) containing […] of kanamycin, and the cultured at 37° C., to thereby induce SPR expression with 0.5 mM IPTG for four hours. After the induction, the cells were collected by centrifugation at 6,000 G for 30 minutes and washed with PBS, and the washing was discarded. The washed cells were suspended in buffer solution A (20 mM MES, pH 6.5, 100 mM sodium chloride, 1 mM DTT, 5 mM imidazole). Subsequently, the cell suspension was subjected to ultrasonic treatment to thereby homogenize the cells. The cell homogenate was clarified by centrifugation at 30,000 G for 60 minutes and then filtered with a […]. The filtrate was allowed to pass through HisTrapFF 5 mL column (GE Healthcare). The resin was washed with buffer A, and then gradient elution was performed with buffer B (20 mM MES, pH 6.5, 100 mM sodium chloride, 1 mM DTT, 500 mM imidazole). Thrombin was added to a fraction containing the SPR protein, and the mixture was dialyzed in buffer A overnight, to thereby cleave the tag. After removal of the thrombin by with Benzamidine Sepharose 4 FF (GE Healthcare), the resultant product was allowed to pass through the HisTrapFF 5 mL column, to thereby remove the tag, followed by concentration with Amicon Ultra 10,000 NMWL (Merck Millipore). The concentrate was purified by gel filtration using HiLoad 16/60 Superdex 75 pg (GE Healthcare) equilibrated with buffer C (20 mM MES, pH 6.5, 100 mM sodium chloride, 1 mM DTT). The fraction containing SPR protein was concentrated and then cryopreserved at −80° C.
Human SPR inhibitory activity was measured by using a 384-well low adsorption clear plate (Greiner) with buffer D containing 100 mM Tris-HCl (pH 7.5) (Thermo Fisher Scientific) and 0.01% bovine serum albumin (Sigma). A compound was diluted with DMSO to a concentration of 1 mM, and a 1 μL aliquot of the preparation was diluted with 250 μL of buffer D. The thus-diluted compound was dispensed into the 384-well plate at […]. Thereafter, human SPR was diluted with buffer D to 200 ng/mL and then dispensed into the 384-well plate at 20 μL/well. Subsequently, 40 μL of ultrapure water containing 120 μM Sepiapterin (WuXi AppTec) and 120 μM NADPH (Nacalai) was added to each well, and mixed with a vortex mixer, to thereby initiate the reaction. The reaction mixture was incubated at room temperature for 240 minutes, and the reaction was terminated by addition of 10 μL of ultrapure water containing 2% formic acid (Nacalai). In order to determine the amount of sepiapterin after termination of the reaction, the absorbance at 420 nm was measured by applying the 384-well plate to EnSpire multimode plate reader (Perkin Elmer). The percent inhibition (%) of human SPR by the test compound was calculated by the following formula. […]

human SPR [2] = molecular target: T1, human SPR; test: Evaluation Example 2: Measurement of human SPR inhibitory activity (seven concentrations, sepiapterin absorbance at 420 nm); assay type: biochemical; details: Evaluation Example 2, seven concentrations 0.14 nM to 100 nM, 240 minutes at room temperature, read-out: IC50
Method in brief: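 His-tagged full-length human SPR (1-261) was expressed in E. coli and the tag removed. Enzyme at 150 ng/mL in 100 mM Tris-HCl pH 7.5/0.01% BSA was mixed with compound (0.14–100 nM, seven points), 120 μM sepiapterin and 160 μM NADPH, both as added-solution concentrations. After 240 min at room temperature, remaining sepiapterin was read at 420 nm to give percent inhibition.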

T1 sequence (P35270 whole entry): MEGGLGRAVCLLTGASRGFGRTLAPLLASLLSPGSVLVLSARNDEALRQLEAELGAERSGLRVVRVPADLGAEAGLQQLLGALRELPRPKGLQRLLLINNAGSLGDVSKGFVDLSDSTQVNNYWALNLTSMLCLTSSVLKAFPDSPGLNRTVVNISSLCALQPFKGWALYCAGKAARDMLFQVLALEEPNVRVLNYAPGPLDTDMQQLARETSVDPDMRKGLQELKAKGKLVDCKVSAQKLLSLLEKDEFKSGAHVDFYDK

Compound	IC50 (human SPR [1]) [nM]	IC50 (human SPR [2]) [nM]
CC(C)Cn1c(=O)c(C(=O)NC2CC2)c(O)n2ncc(/C=C/C(=O)N3CCOCC3)c12 [Synthesis Example 10, (E)-N-Cyclopropyl-7-hydroxy-4-isobutyl-3-(3-morpholino-3-oxoprop-1-en-1-yl)-5-oxo-4,5-dihydropyrazolo[1,5-a]pyrimidine-6-carboxamide]	< 1000	0.68
CC(C)(C)Cn1c(=O)c(C(=O)NC2CC2)c(O)n2nc(Nc3ccncn3)cc12 [Synthesis Example 12, N-Cyclopropyl-7-hydroxy-4-neopentyl-5-oxo-2-(pyrimidin-4-ylamino)-4,5-dihydropyrazolo[1,5-a]pyrimidine-6-carboxamide]	< 1000	1.41
CC(C)(C)Cn1c(=O)c(C(=O)NC2CC2)c(O)n2nc(Nc3cnccn3)cc12 [Synthesis Example 13, N-Cyclopropyl-7-hydroxy-4-neopentyl-5-oxo-2-(pyrazin-2-ylamino)-4,5-dihydropyrazolo[1,5-a]pyrimidine-6-carboxamide]	< 1000	1.43
CC(C)(C)Cn1c(=O)c(C(=O)NC2CC2)c(O)n2nc(-c3cccnc3N)cc12 [Synthesis Example 14, 2-(2-Aminopyridin-3-yl)-N-cyclopropyl-7-hydroxy-4-neopentyl-5-oxo-4,5-dihydropyrazolo[1,5-a]pyrimidine-6-carboxamide]	< 1000	1.19
CC(C)(C)Cn1c(=O)c(C(=O)NC2CC2)c(O)n2nc(Nc3cnc(C(F)(F)F)cn3)cc12 [Synthesis Example 15, N-Cyclopropyl-7-hydroxy-4-neopentyl-5-oxo-2-((5-(trifluoromethyl)pyrazin-2-yl)amino)-4,5-dihydropyrazolo[1,5-a]pyrimidine-6-carboxamide]	< 1000	1.61
COc1cnc(Nc2cc3n(CC(C)(C)C)c(=O)c(C(=O)NC4CC4)c(O)n3n2)cn1 [Synthesis Example 16, N-Cyclopropyl-7-hydroxy-2-((5-methoxypyrazin-2-yl)amino)-4-neopentyl-5-oxo-4,5-dihydropyrazolo[1,5-a]pyrimidine-6-carboxamide]	< 1000	1.96
COc1cncc(Nc2cc3n(CC(C)(C)C)c(=O)c(C(=O)NC4CC4)c(O)n3n2)n1 [Synthesis Example 17, N-Cyclopropyl-7-hydroxy-2-((6-methoxypyrazin-2-yl)amino)-4-neopentyl-5-oxo-4,5-dihydropyrazolo[1,5-a]pyrimidine-6-carboxamide]	< 1000	0.76
CC(C)(C)Cn1c(=O)c(C(=O)NC2CC2)c(O)n2nc(N)cc12 [Synthesis Example 18, 2-Amino-N-cyclopropyl-7-hydroxy-4-neopentyl-5-oxo-4,5-dihydropyrazolo[1,5-a]pyrimidine-6-carboxamide]	< 1000	0.89
CC(C)(C)Cn1c(=O)c(C(=O)NC2CC2)c(O)n2nc(Nc3cnc(C(N)=O)cn3)cc12 [Synthesis Example 21, 2-((5-Carbamoylpyrazin-2-yl)amino)-N-cyclopropyl-7-hydroxy-4-neopentyl-5-oxo-4,5-dihydropyrazolo[1,5-a]pyrimidine-6-carboxamide]	< 1000	0.96
CC(C)Cn1c(=O)c(C(=O)NC2CC2)c(O)n2nc(Nc3cnccn3)cc12 [Synthesis Example 23, N-Cyclopropyl-7-hydroxy-4-isobutyl-5-oxo-2-(pyrazin-2-ylamino)-4,5-dihydropyrazolo[1,5-a]pyrimidine-6-carboxamide]	< 1000	1.91
CC(C)(C)Cn1c(=O)c(C(=O)NC2CC2)c(O)n2nc(NC(N)=O)cc12 [Synthesis Example 32, N-Cyclopropyl-7-hydroxy-4-neopentyl-5-oxo-2-ureido-4,5-dihydropyrazolo[1,5-a]pyrimidine-6-carboxamide]	< 1000	3.08
CC(C)(C)Cn1c(=O)c(C(=O)NC2CC2)c(O)n2nc(C(N)=O)cc12 [Synthesis Example 33, N6-Cyclopropyl-7-hydroxy-4-neopentyl-5-oxo-4,5-dihydropyrazolo[1,5-a]pyrimidine-2,6-dicarboxamide]	< 1000	0.65
